According to US20190092720A1, “FUNCTIONALIZED BENZAMIDE DERIVATIVES AS ANTIVIRAL AGENTS AGAINST HBV INFECTION” (BARUCH S. BLUMBERG INSTITUTE, priority 2012, published 2019):

Tests used:
[1] = system: HBV replication in AML12HBV10 cells; assay: Antiviral efficacy in AML12HBV10 cells (HBV DNA dot-blot hybridization); type: cell-based, Hepatitis B virus (HBV); conditions: Hepatitis B virus, AML12HBV10, 48 h, read-out: AML12HBV10 EC50, concentration that reduces the amount of HBV DNA by 50%, serial dilution 50 μM to 0.39 μM
Procedure: The HBV replication inhibitors of the present invention are capable of treating and preventing diseases associated with HBV infection.
The antiviral efficacy of the compounds of the disclosure, as presented in Table 1, were determined in AML12HBV10 cells. AML12HBV10 is an immortalized murine hepatocyte (AML12)-derived stable cell line that supports robust HBV replication in a tetracycline inducible manner (Xu et al.). The cells were seeded into 96 well plates at a density of 2×10^4 cells per well and cultured in DMEM/F12 media with 10% fetal bovine serum in the absence of tetracycline to allow pgRNA transcription and HBV DNA replication. One day after seeding, cells were left untreated or treated with a serial dilution of testing compounds, ranging from 50 μM to 0.39 μM, for 48 hours. Cells were then lysed by adding into each well of 100 μl lysis buffer containing 10 mM Tris-HCl (pH 7.6), 1 mM EDTA, 100 mM NaCl and 1% NP-40 and incubated at 37° C. for 30 minutes. Half amount (50 μl) of cell lysate from each well was combined with equal volume of denaturing solution containing 0.5N NaOH and 1.5M NaCl. After 5 minute incubation, 100 µl of neutralization solution (1M Tris-HCl, pH 7.4, 1.5M NaCl) was added into each well. The denatured cell lysates (totally 200 μl) were applied onto Nylon membrane using 96-well dot-blot manifold (Biorad). HBV DNA in the cell lysates were determined by dot-blot hybridization with alpha-^32P-UTP-labelled riboprobe specific for HBV minus strand DNA. The antiviral efficacy of a compound of the disclosure was expressed as the concentration that reduces the amount of HBV DNA by 50% (EC50).

[2] = Cytotoxicity in AML12HBV10 cells (MTT assay); type: cell-based, murine; conditions: mouse, concentration that reduces viability by 50%, serial dilution 50 μM to 0.39 μM
Procedure: Determination of cytotoxicity of compounds of the disclosure in AML12HBV10 cells: To determine the cytotoxicity of the compounds, AML12HBV10 cells were seeded into 96-well plates at a density of 2×10^4 cells per well and cultured in DMEM/F12 media with 10% fetal bovine serum in the absence of tetracycline to allow pgRNA transcription and HBV DNA replication. One day after seeding, cells were left untreated or treated with a serial dilution of testing compounds, ranging from 50 μM to 0.39 μM, for 48 hours. The cell viability was measured by a MTT assay, following procedure provided by the manufacturer (Promega). The cytotoxicity of a compound was expressed as the concentration of compound that reduces the viability of the cells by 50% (CC50).

[3] = system: HBV replication in HepDES19 cells; assay: Antiviral activity in HepDES19 cells (core-associated HBV DNA, Southern blot); type: cell-based, Hepatitis B virus (HBV); conditions: concentration that reduces core-associated HBV DNA by 50%, 6 days, serial dilution 10 μM to 0.018 μM
Excerpt: Determination of antiviral activity of compounds of the disclosure, as presented in Table 1, in human hepatoma-derived cell lines: To further confirm the antiviral activity of the compounds of the disclosure against HBV in human hepatocyte-derived cells, HepDES19 cells, a human hepatoma cell line supporting HBV replication in a tetracycline inducible manner (Guo et al., 2007), seeded into 12-well plates at a density of 5×10^5 cells per well and cultured in DMEM/F12 media with 10% fetal bovine serum and 1 μg/ml tetracycline. Two days after seeding, the cells were mock-treated or treated with a serial dilution of compounds of the disclosure, ranging from 10 μM to 0.018 μM, for 6 days in the absence of tetracycline. Upon the completion of treatment, cells were lysed by adding into each well of the 12-well plates 0.5 ml of lysis buffer containing 10 mM Tris-HCl (pH 8.0), 1 mM EDTA, 1% NP40 and 2% sucrose and incubating at 37° C. for 10 minutes. Cell debris and nuclei were removed by centrifugation and the supernatant was mixed with 130 μl of 35% polyethylene glycol (PEG) 8000 containing 1.5 M NaCl. After 1 hour incubation in ice, viral nucleocapsids were pelleted by centrifugation at 6,000×g for 5 min at 4° C., followed by 1 hour digestion at 37° C. in 400 μl of digestion buffer containing 0.5 mg/ml pronase (Calbiochem), 0.5% SDS, 150 mM NaCl, 25 mM Tris-HCl (pH 8.0) and 10 mM EDTA. The digestion mixture was extracted twice with phenol and DNA was precipitated with ethanol, dissolved in TE buffer (10 mM Tris-HCl, pH 8.0; 0.1 mM EDTA). One half of the DNA sample from each well was resolved by electrophoresis into a 1.5% agarose gel. The gel was then subjected to denaturation in a solution containing 0.5 M NaOH and 1.5 M NaCl, followed by neutralization in a buffer containing 1 M Tris-HCl (pH7.4) and 1.5 M NaCl. DNA was then blotted onto Hybond-XL membrane (GE Health care) in 20×SSC buffer. The amounts of cytoplasmic HBV core-associated HBV DNA were determined by Southern blot hybridization and the antiviral efficacy of a compound was expressed as its concentration that reduce the amount of HBV DNA by 50% (EC50) or 90% (EC90).

[4] = Hepatitis B virus, HepDES19, 144 h

Row | Compound | EC50 [1] [µM] | CC50 at 48 h [2] [µM] | EC50 [3] [µM] | EC50 [3, 4] [µM]
1 | O=C(Nc1ccc(O)cc1)c1scc2c1CCCC2 [Entry 1] | 36 | > 50 |  | 
2 | O=C(Nc1ccccc1)c1scc2c1CCCC2 [Entry 2] | 9 | > 50 |  | 
3 | O=C(Nc1ccc(F)cc1)c1scc2c1CCCC2 [Entry 3] | 25 | > 50 |  | 
4 | COc1cccc(NC(=O)c2scc3c2CCCC3)c1 [Entry 4] | 8 | > 50 |  | 
5 | O=C(Nc1cccc(C(F)(F)F)c1)c1scc2c1OCCO2 [Entry 5] | 8.5 | > 50 |  | 
6 | O=C(Nc1ccccc1)c1scc2c1OCCO2 [Entry 7] | 3 | > 50 | 3 | 
7 | O=C(Nc1cccc(Cl)c1)c1ccccc1 [Entry 8] | 46.2 | > 50 |  | 
8 | O=C(Nc1cccc(I)c1)c1scc2c1OCCO2 [Entry 9] | 2.8 | > 50 |  | 
9 | O=C(Nc1cccc(Cl)c1)c1csc2ccccc12 [Entry 11] | 30 | > 50 |  | 
10 | O=C(Nc1cccc(Cl)c1)c1cccc(F)c1F [Entry 12] | 30 | > 50 |  | 
11 | O=C(Nc1cccc(Cl)c1)c1ccccc1Cl [Entry 13] | 12.3 | > 50 |  | 
12 | O=C(Nc1cccc(Cl)c1)c1cccc(Cl)c1Cl [Entry 14] | 8.3 | > 50 |  | 22.2
13 | O=C(Nc1cccc(Cl)c1)c1c(F)cccc1F [Entry 15] | 31.2 | > 50 |  | 
14 | O=C(Nc1cccc(Cl)c1)c1c(Cl)cccc1Cl [Entry 16] | 35.3 | > 50 |  | 
15 | O=C(Nc1cccc(Cl)c1)c1ccccc1F [Entry 17] | 16.5 | > 50 |  | 
16 | O=C(Nc1cccc(Cl)c1)c1cccc2ccccc12 [Entry 18] | 6.52 | > 50 |  | 4.2
17 | O=C(Nc1cc(Cl)cc(Cl)c1)c1cccc2c1OCCO2 [Entry 20] | 4.85 | > 50 |  | 
18 | O=C(Nc1ccc(F)c(F)c1)c1ccc2ccccc2c1 [Entry 21] | 23.9 | > 50 |  | 
19 | O=C(Nc1ccc(F)c(F)c1)c1scc2c1OCCO2 [Entry 22] | < 0.4 | > 50 |  | 
20 | O=C(Nc1cccc(I)c1)c1ccc2ccccc2c1 [Entry 23] | 19.4 | > 50 |  | 
21 | O=C(Nc1cccc(Cl)c1)c1cccc2c1OCO2 [Entry 24] | 1.14 | > 10 |  | 
22 | O=C(Nc1cccc(F)c1)c1cccc2c1OCCO2 [Entry 25] | 0.41 | > 10 |  | 

Row | Compound | EC50 [1] [µM] | CC50 at 48 h [2] [µM] | EC50 [3] [µM] | EC50 [3, 4] [µM]
23 | O=C(Nc1ccc(F)cc1)c1cccc2c1OCCO2 [Entry 26] | 0.4 | > 10 |  | 
24 | O=C(Nc1cccc(OC(F)(F)F)c1)c1cccc2c1OCCO2 [Entry 27] | 11.2 | > 10 |  | 
25 | O=C(Nc1ccccc1F)c1cccc2c1OCCO2 [Entry 28] | 10.8 | > 10 |  | 
26 | O=C(Nc1ccc(Br)cc1F)c1cccc2c1OCCO2 [Entry 29] | 10.6 | > 10 |  | 
27 | O=C(Nc1cc(F)ccc1F)c1cccc2c1OCCO2 [Entry 30] | 14.9 | > 10 |  | 
28 | O=C(Nc1ccc(F)c(F)c1)c1cccc2c1OCCO2 [Entry 31] | 0.17 | > 10 |  | 
29 | O=C(Nc1ccc(F)cc1F)c1cccc2c1OCCO2 [Entry 32] | 8.53 | > 10 |  | 
30 | O=C(Nc1ccc(F)c(F)c1)c1cccc(Cl)c1Cl [Entry 33] | 1.86 | > 10 |  | 
31 | O=C(Nc1ccc(F)cc1F)c1cccc(Cl)c1Cl [Entry 34] | 13.2 | > 10 |  | 
32 | O=C(Nc1ccc(Cl)c(Cl)c1)c1cccc2c1OCCO2 [Entry 35] | 0.49 | > 10 |  | 
33 | O=C(Nc1ccc(F)cc1Cl)c1cccc2c1OCCO2 [Entry 36] | 7.41 | > 10 |  | 
34 | O=C(Nc1ccc(Cl)cc1F)c1cccc2c1OCCO2 [Entry 37] | 8.88 | > 10 |  | 
35 | O=C(Nc1ccc(F)c(Cl)c1)c1cccc2c1OCCO2 [Entry 38] | 0.05 | > 10 |  | 
36 | O=C(Nc1ccc(F)c(F)c1F)c1cccc2c1OCCO2 [Entry 39] | 3 | > 10 |  | 
37 | O=C(Nc1c(F)cc(F)cc1F)c1cccc2c1OCCO2 [Entry 40] | 10.5 | > 10 |  | 
38 | O=C(Nc1ccc(Cl)c(F)c1)c1cccc2c1OCCO2 [Entry 41] | 1.48 | > 25 |  | 
39 | O=C(Nc1cccc(Cl)c1)c1cccc2c1OCCCO2 [Entry 42] | 2.75 | > 25 |  | 
40 | O=C(Nc1ccc(F)c(F)c1)c1cccc2c1OCCCO2 [Entry 43] | 1.93 | > 25 |  | 
41 | O=C(Nc1ccc(F)c(Cl)c1)c1cccc2c1OCCCO2 [Entry 44] | 1.1 | > 25 |  | 
42 | O=C(Nc1ccc(Cl)c(F)c1)c1cccc2c1CCCC2 [Entry 45] | 1.66 | > 25 |  | 
43 | O=C(Nc1ccc(F)c(F)c1)c1cccc2c1CCCC2 [Entry 46] | 1.48 | > 25 |  | 
